{"source": "patent US7288273B1", "about": "“Gallotannins and ellagitannins as regulators of cytokine release” (The Penn State Research Foundation, priority 2000, dated 2007)", "key": {"[1]": {"tested_on": "IL-1β secretion from h-PBMC's", "test": "IL-1β release from h-PBMC's, ELISA", "assay_type": "cell-based, human", "conditions": "h-PBMC's 2nd subject, ± SD", "protocol": "(§1) Authentic samples of agrimoniin and coriariin A were supplied by Professor Yoshida (Okayama University, Japan). Dimeric gallotannin (analog of coriariin A) and β-D-PGG were synthesized as described. LPS (E. coli 055:B5 phenol extract, MW range 50-100 KD). Ficoll-Histopaque (ρ=1.077 g/mL), Fetal Bovine Serum, sterile, hybridoma tested (FCS), gentamicin 10 mg/mL. L-glutamine, 200 mM. Dextran B-512 Leuconostoc Av M.W. 580000, and Trypan Blue stain were purchased from Sigma. Hanks Buffer Saline Solution 1×, with phenol red, mediatech (HBSS) and RPMI 1640 1×, mediatech were purchased from Fisher Scientific, Human IL-1β and TNF-α Enzyme Linked ImmunoSorbent Assay (ELISA) kits were purchased from R and D Systems, Minneapolis, Minn. Fresh heparinized blood was obtained from health human subjects (ages 20-34).\n(§2) Dose-Response Data: General Procedure. H-PBMC's were isolated by reported procedures (10. 18). The cells counted and the viability was determined by Trypan Blue exclusion (typically, viability exceeded 95%). The concentration of the cells in the 0.5 mL wells was adjusted to 1×10^6 cells/well by diluting with the required amount of RPMI.\n(§3) The appropriate amount of a tannin (or LPS) stock solution in HBSS was added to each well to furnish the concentration values reported in the Figures. […] The culture plates were incubated in a 5% CO2, 37° C. humidified incubator for the indicated time. At the end of the time interval, 450 μL of the culture supernatant from each well was harvested, after centrifugation at 400 g, 25° C., 10 min. with brake, and stored at −78° C. pending ELISA analysis for the cytokine(s). The ELISA assays were conducted per the manufacturer's instructions using standard calibration curves to calculate cytokine concentration from observed absorbance readings. The cytokine values reported are averages of three runs±SE.\n(§4) The dimeric antitumor ellagitannins coriariin A and agrimoniin, the monomeric gallotannin β-D-pentagalloylglucose (β-D-PGG) and the dimeric gallotannin of this invention were all examined in this study. The dimeric gallotannin is an analog of coriariin A and is identical to the parent ellagitannin except that the galloyl rings at O(4) and O(6) are not joined in a hexahydroxydiphenoyl (HHDP) linkage. h-PBMC's were incubated with the compound under investigation for the indicated length of time and the amounts of both IL-1β and, independently, TNF-α, present in the culture supernatants was determined using commercially available ELISA kits. In each case, LPS was used as a positive control while untreated cells were reserved as negative controls.\nIn the third study, compounds 17c-20c were examined for their ability to induce secretion of IL-1β from h-PBMC's (FIG. 16). Recall from the introduction that the cytokine IL-1β is also released in an LPS-stimulated septic shock response. The compounds that cause very little secretion of IL-1β or none at all will be the optimal compounds for potential septic shock therapeutics because they will be less likely themselves to induce a septic shock response."}, "[2]": {"tested_on": "LPS induced TNF-α secretion from h-PBMC's", "test": "Inhibition of LPS induced TNF-α secretion from h-PBMC's", "assay_type": "cell-based, human", "conditions": "LPS 5 μg/mL; for TNF-α secreted in the presence of LPS and 17c-20c: compound 10 μg/mL added after 45 minutes, h-PBMC's 3rd subject, ± SD", "protocol": "In the second study, the ability of compounds 17c-20c to inhibit LPS induced TNF-α production in h-PBMC's was investigated using four assays. The first experiment was a kinetics run in which the h-PBMC's were initially incubated with a fixed concentration of LPS (5 μg/mL) for 45 minutes. This incubation period was followed by addition of a fixed concentration (10 μg/mL) of compounds 17c-20c. The cells were harvested at varying intervals of time. […] The optimal time was determined by comparing the amount of TNF-α secreted by LPS alone to the amount of TNF-α secreted by LPS and substrate at each time point.\nThe second assay determined the minimum amount of substrate required for inhibition. LPS (10 μg/mL) was incubated with h-PBMC's for 45 minutes followed by addition of 17c-20c at varying concentrations. The cell culture supernatant was harvested after 8 hours. The inherent variability in using cells from different subjects, or in the day of assay, made it difficult to compare overall effectiveness of inhibitors. Therefore, to more easily identify the concentration at which maximum inhibition occurs for a given compound, the TNF-α secretion was normalized by calculating a percent of maximum secretion value (based on LPS alone) (FIG. 13). […] The optimal concentration for inhibition varied between substrates, but the general dose response trend was the same. Overall, the maximum inhibition was 45% for 18c and 20c, and 25% for 19c.\nThe third assay investigated the ability of 17c, 18c, and 20c to inhibit LPS induced TNF-α secretion using a smaller dosage of LPS (5 μg/mL) (FIG. 14). Again, the response was dose dependent. The maximum inhibition was 45% for 17c and 20c, and 35% for 18c.\nIn the fourth assay the varying concentrations of substrates 17c-20c and LPS were added at the same time to determine the effect of addition sequence on the inhibition of TNF-α secretion (FIG. 15). The addition time seemed to make a difference in the overall dose response trend. However, maximum inhibition was the same as when the compounds were added 45 minutes after LPS addition (about 40% for each compound).\nFinally, in the last study, analogs 19c and 20c were again tested for inhibition LPS induced TNF-α secretion (FIG. 17). In this assay a smaller dose of LPS was used to determine if inhibition was greater when much lower doses of LPS were present. The substrates were added 45 minutes after LPS addition and the cells were harvested after 8 hours. It doesn't appear as though the substrates are better inhibitors when smaller amounts of LPS are used, again perhaps reflecting receptor saturation with LPS at this dosage."}, "[3]": {"tested_on": "TNF-α secretion from h-PBMC's", "test": "TNF-α release from h-PBMC's, ELISA", "assay_type": "cell-based, human", "conditions": "for TNF-α secreted in the presence of 17c-21c: 24 hours, ± SD", "protocol": "as §1, §2, §3, §4\nIn the first study, the induction of TNF-α secretion from h-PBMC's in the presence of each compound 17c-21c was measured. The h-PBMC's were incubated with each compound for 24 hours. The TNF-α levels in the cell culture supernatant were assayed by Enzyme Linked ImmunoSorbant Assay (ELISA). The data point for each assay represent the mean of triplicate measurements. […] (See FIG. 11)."}, "sarcoma-180 tumors": {"tested_on": "sarcoma-180 tumors", "conditions": "mice infected with sarcoma-180 tumors; cited from earlier work"}}}
{"compound": "O=C(OC[C@H]1O[C@@H](OC(=O)c2ccc(C(=O)O[C@@H]3O[C@H](COC(=O)c4cc(O)c(O)c(O)c4)[C@@H](OC(=O)c4cc(O)c(O)c(O)c4)[C@H](OC(=O)c4cc(O)c(O)c(O)c4)[C@H]3OC(=O)c3cc(O)c(O)c(O)c3)cc2)[C@H](OC(=O)c2cc(O)c(O)c(O)c2)[C@@H](OC(=O)c2cc(O)c(O)c(O)c2)[C@@H]1OC(=O)c1cc(O)c(O)c(O)c1)c1cc(O)c(O)c(O)c1", "note": "[Compound 17c, 1,1′-O-2,2′,3,3′,4,4′,6,6′-Tetrakis(3,4,5-trihydroxybenzoyl)-β,β′-D,D′-glucopyranosylterephthalate]", "values": [{"measurement": "IL-1β secreted in the presence of 17c-20c", "setting": "[1]; compound 0.6 μM", "value": 0, "unit": "pg/mL"}, {"measurement": "IL-1β secreted in the presence of 17c-20c", "setting": "[1]; compound 2.9 μM", "value": 0, "unit": "pg/mL"}, {"measurement": "IL-1β secreted in the presence of 17c-20c", "setting": "[1]; compound 5.9 μM", "value": "3.2 ± 3.6", "unit": "pg/mL"}, {"measurement": "IL-1β secreted in the presence of 17c-20c", "setting": "[1]; compound 11.8 μM", "value": "329.7 ± 443.0", "unit": "pg/mL"}, {"measurement": "IL-1β secreted in the presence of 17c-20c", "setting": "[1]; compound 17.6 μM", "value": "140.5 ± 195.6", "unit": "pg/mL"}, {"measurement": "IL-1β secreted in the presence of 17c-20c", "setting": "[1]; compound 23.5 μM", "value": "630.6 ± 283.1", "unit": "pg/mL"}, {"measurement": "IL-1β secreted in the presence of 17c-20c", "setting": "[1]; compound 29.4 μM", "value": "690.1 ± 101.0", "unit": "pg/mL"}, {"measurement": "TNF-α secreted in the presence of LPS and 17c-20c", "setting": "[2]; time 1 h", "value": "511.2 ± 288.3", "unit": "pg/mL"}, {"measurement": "TNF-α secreted in the presence of LPS and 17c-20c", "setting": "[2]; time 4 h", "value": "1896.3 ± 140.9", "unit": "pg/mL"}, {"measurement": "TNF-α secreted in the presence of LPS and 17c-20c", "setting": "[2]; time 8 h", "value": "2477.0 ± 148.2", "unit": "pg/mL"}, {"measurement": "TNF-α secreted in the presence of LPS and 17c-20c", "setting": "[2]; time 12 h", "value": "2574.4 ± 459.9", "unit": "pg/mL"}, {"measurement": "TNF-α secreted in the presence of LPS and 17c-20c", "setting": "[2]; time 16 h", "value": "1811.6 ± 352.9", "unit": "pg/mL"}, {"measurement": "TNF-α secreted in the presence of LPS and 17c-20c", "setting": "[2]; time 24 h", "value": "2266.1 ± 353.3", "unit": "pg/mL"}, {"measurement": "maximum inhibition of LPS induced TNF-α secretion", "setting": "[2]; 3rd subject", "value": 45, "unit": "%"}, {"measurement": "TNF-α secreted in the presence of 17c-21c", "setting": "[3]; compound 0.6 μM", "value": 0, "unit": "pg/mL"}, {"measurement": "TNF-α secreted in the presence of 17c-21c", "setting": "[3]; compound 2.9 μM", "value": 0, "unit": "pg/mL"}, {"measurement": "TNF-α secreted in the presence of 17c-21c", "setting": "[3]; compound 5.9 μM", "value": 0, "unit": "pg/mL"}, {"measurement": "TNF-α secreted in the presence of 17c-21c", "setting": "[3]; compound 11.8 μM", "value": "0.26 ± 0.37", "unit": "pg/mL"}, {"measurement": "TNF-α secreted in the presence of 17c-21c", "setting": "[3]; compound 17.6 μM", "value": 0, "unit": "pg/mL"}, {"measurement": "TNF-α secreted in the presence of 17c-21c", "setting": "[3]; compound 23.5 μM", "value": "0.26 ± 0.37", "unit": "pg/mL"}, {"measurement": "TNF-α secreted in the presence of 17c-21c", "setting": "[3]; compound 29.4 μM", "value": "2.5 ± 3.5", "unit": "pg/mL"}]}
{"compound": "O=C(OC1O[C@@H]2COC(=O)c3cc(O)c(O)c(O)c3-c3c(cc(O)c(O)c3O)C(=O)O[C@H]2[C@H](OC(=O)c2cc(O)c(O)c(O)c2)[C@H]1OC(=O)c1cc(O)c(O)c(O)c1)c1cc(O)c(O)c(O)c1", "note": "(stereo partly drawn) [Compound 2, tellimagrandin II]", "values": [{"measurement": "antitumor effect, in words", "setting": "sarcoma-180 tumors", "value": "much less effective antitumor agents"}]}
{"compound": "1,1′-2,2′,3,3′,4,4′,6,6′-Tetrakis(3,4,5-trihyroxybenzoyl)-β,β′-D,D′-glucopyranosyl-(2,3′-oxy-di-benzoate) [Compound 21c]", "values": [{"measurement": "TNF-α secretion from h-PBMC's, in words", "setting": "[3]", "value": "significant amount of TNF-α secretion"}, {"measurement": "TNF-α secreted in the presence of 17c-21c", "setting": "[3]; compound 0.6 μM", "value": "140.7 ± 50.1", "unit": "pg/mL"}, {"measurement": "TNF-α secreted in the presence of 17c-21c", "setting": "[3]; compound 2.8 μM", "value": "80.3 ± 38.1", "unit": "pg/mL"}, {"measurement": "TNF-α secreted in the presence of 17c-21c", "setting": "[3]; compound 5.6 μM", "value": "61.9 ± 11.7", "unit": "pg/mL"}, {"measurement": "TNF-α secreted in the presence of 17c-21c", "setting": "[3]; compound 11.2 μM", "value": "96.2 ± 8.9", "unit": "pg/mL"}, {"measurement": "TNF-α secreted in the presence of 17c-21c", "setting": "[3]; compound 16.8 μM", "value": "379.3 ± 156.6", "unit": "pg/mL"}, {"measurement": "TNF-α secreted in the presence of 17c-21c", "setting": "[3]; compound 22.3 μM", "value": "618.0 ± 182.0", "unit": "pg/mL"}, {"measurement": "TNF-α secreted in the presence of 17c-21c", "setting": "[3]; compound 27.9 μM", "value": "899.0 ± 368.4", "unit": "pg/mL"}]}
{"compound": "O=C(O[C@H]1[C@@H]2OC(=O)c3cc(O)c(O)c(O)c3-c3c(cc(O)c(O)c3O)C(=O)OC[C@H]2OC(O)[C@@H]1OC(=O)c1cc(O)c(O)c(O)c1)c1cc(O)c(O)c(O)c1", "note": "(stereo partly drawn) [tellimagrandin I]", "values": [{"measurement": "antitumor effect, in words", "setting": "sarcoma-180 tumors", "value": "much less effective antitumor agents"}]}
{"compound": "gemin A", "values": [{"measurement": "antitumor effect, in words", "setting": "sarcoma-180 tumors", "value": "induce tumor regression"}]}
{"compound": "O=C1OC[C@H]2OC(O)[C@@H]3OC(=O)c4cc(O)c(O)c(O)c4-c4c(cc(O)c(O)c4O)C(=O)O[C@H]3[C@@H]2OC(=O)c2cc(O)c(O)c(O)c2-c2c1cc(O)c(O)c2O", "note": "(stereo partly drawn) [pedunculagin]", "values": [{"measurement": "antitumor effect, in words", "setting": "sarcoma-180 tumors", "value": "much less effective antitumor agents"}]}
